Results reported in patent US9494589B2, “Method of determining the probability of a therapeutic response in cancer chemotherapy with cardiac glycoside” (priority 2007, dated 2016).

What was measured:
BXPC3 cells = assay: In vitro cytotoxicity, MTT assay of cell proliferation; format: cell-based, human; settings: BXPC3, Pancreas; 72 hr
Description: (§1) As defined in the Tables above, an “in vitro response” denotes the extent to which proliferation of a given tumor cell line is inhibited with a stated concentration of drug (cardiac glycoside) over a defined period of time. A designation of “no response” denotes less than 50% growth inhibition at any of the multiple drug concentrations tested. That is, no concentration could be identified as an IC50 value (that concentration producing inhibition of cell growth by 50% over the stated period of time of the experiment). Accordingly, were this tumor cell line growing in a mammal such as a human, it is probable that the drug would be ineffective in producing significant inhibition of tumor growth. The designation of “partial response” in the Table above denotes the capacity of a given cardiac glycoside such as oleandrin or bufalin to inhibit cell proliferation by more than 50% but less than 75% relative to nontreated tumor cell growth. Accordingly, this would equate to a partial or less than complete therapeutic response of the tumor to the cardiac glycoside if this product were used to treat tumor growth in a mammal such as a human. […] Accordingly, it is probable that total inhibition of tumor growth (or a complete therapeutic response, in a mammal might be achieved.
(§2) Cells were grown in their relevant media as indicated in the table below at a density of 1×10^4 cells/well. After a 24 hr incubation period, cells were treated with various concentrations of oleandrin (1 to 500 nM). After an additional 72 hr, inhibition of cellular proliferation was assessed by MTT assay (23). Absorbance was read at a wavelength of 570 nm and a reference wavelength of 650 nm using a V-Max Micro-plate Reader by Molecular Devices, Inc. (Sunnyvale, Calif.). The relative extent of inhibition of cell proliferation due to the presence of a given concentration of oleander extract or other plant extract containing a cardiac glycoside compound(s) can be derived by comparing treated to non-treated cell numbers after a set period of time allowing for cell growth (e.g. 24-72 hr).

MiaPaca cells = assay: as above; format: cell-based, human; settings: 72 hr; for IC50: Homo sapiens, MIA PaCa-2, Pancreas; for In vitro response: Pancreas
Description: as §1, §2

PANC1 cells = assay: as above; format: cell-based, human; settings: PANC1, Pancreas, 72 hr; for IC50: Homo sapiens, PANC-1
Description: as §1, §2

[1] = system: rodent (mouse and rat) tumor cell lines; assay: In vitro proliferation of rodent tumor cell lines; format: cell-based; settings: rodent tumor cell lines lacking α3 subunit isoform
Description: Rodent (rat or mouse) cancer cells can be used as a negative control sample. FIG. 1A depicts a film developed against the gel of a Western blot analysis of rodent tumor cell lines. […] Human tumor cell lines are generally more sensitive to treatment with cardiac glycoside-containing composition than are murine tumor cells (FIG. 1B). The inventors believe this difference in therapeutic responsiveness is due to the differences in the ratio of α3 to α1 isoforms in the two different species, as noted above.

BRO cells = assay: In vitro cytotoxicity, MTT assay of cell proliferation; format: cell-based, human; settings: Melanoma, 72 hr
Description: as §1, §2

CACO2 cells = assay: as above; format: cell-based, human; settings: CACO2, Colon, 72 hr
Description: as §1, §2

DOD-1 cells = assay: as above; format: cell-based, human; settings: DOD-1, Colon, 72 hr
Description: as §1, §2

HCT116 cells = assay: as above; format: cell-based, human; settings: HCT116, Colon, 72 hr
Description: as §1, §2

HT29 cells = assay: as above; format: cell-based, human; settings: HT29, Colon, 72 hr
Description: as §1, §2

LS174T cells = assay: as above; format: cell-based, human; settings: Colon, 72 hr
Description: as §1, §2

MCF7 cells = assay: as above; format: cell-based, human; settings: MCF7, Breast; 72 hr
Description: as §1, §2

MDA231 cells = assay: as above; format: cell-based, human; settings: MDA231, Breast; 72 hr
Description: as §1, §2

SUM149 cells = assay: as above; format: cell-based, human; settings: SUM149, Breast, 72 hr
Description: as §1, §2

Human melanoma BRO cells = assay: Cytotoxicity comparison of oleandrin and extracts, crystal violet staining; format: cell-based; settings: oleandrin equivalent concentrations, 72 hr
Experimental: (§3) The cytotoxic potential of both extracts are compared directly with that of oleandrin. The samples contained the same amounts of oleandrin even though their concentration of oleandrin differed due to the concentration of oleandrin present in the extracts.
(§4) BRO (human melanoma) and Panc-1 (human pancreatic cancer) cells (8×10^3/well) were plated in a 96 well plate and allowed to attach overnight. Drug or extracts were then added to the cells. After 72 hr of incubation, relative cell proliferation (relative to control untreated cells) was assessed by crystal violet staining method.

[2] = system: Human pancreatic cancer PANC-1 cells; assay: as above; format: cell-based; settings: oleandrin equivalent concentrations, 72 hr
Experimental: as §3, §4

[3] = system: non-transfected Panc-1 cells; assay: Sensitivity to oleandrin of non-transfected Panc-1 cells; format: cell-based; settings: Homo sapiens
Description: (§5) Still further proof of the relative importance of the α3/α1 isoform ratio toward predictability of a therapeutic response by a target malignant tissue to treatment with a cardiac glycoside was established by transfection of Panc-1 cells with α1 subunit isoform. The Na, K-ATPase α1 subunit isoform was transfected to Panc-1 cells, which normally lack α1 expression. The control sample in FIG. 5A is for non-transfected Panc-1 cells, and the α1cDNA sample in FIG. 5A is for Panc-1 cells transfected with the α1 subunit isoform. As a result, the ratio of α3 to α1 was reduced in the transfected Panc-1 cells (FIG. 5B). The sensitivity of the transfected Panc-1 cells to oleandrin treatment was then evaluated.

[4] = system: α1 transfected Panc-1 cells; assay: Sensitivity to oleandrin of Panc-1 cells transfected with α1 subunit isoform; format: cell-based; settings: Homo sapiens
Description: as §5

[5] = system: Panc-1 cells transfected with α3 siRNA; assay: Sensitivity to oleandrin of Panc-1 cells transfected with α3 siRNA, Calcein AM viability; format: cell-based, human; settings: α3 expression reduced by siRNA; 10 to 50 nM, 48 hr
Description: Further proof of the relative importance of the α3/α1 isoform ratio toward predictability of a therapeutic response by a target malignant tissue to treatment with a cardiac glycoside was established as follows. Artificial down-regulation of the expression of α3 isoform in human pancreatic cancer cells, i.e. manipulation of isoform content of subunits of Na, K-ATPase, was achieved by transfection of cells with siRNA (silencing RNA) specific to the α3 isoform. […] Quantitation of the decreased expression of α3 by Western blot is detailed in FIG. 4B.
Panc-1 cells were plated in 6 and 48 well plates and allowed to attach overnight. Transient transfection of α3 siRNA molecules was carried out using siPORT™ Amine Transfection Agent (Ambion Austin, Tex.) and 0.4 μM α3 silencing RNA (Santa Cruz Biotech.) following the manufacture's instructions. Twenty-four hr after transfection, cells were treated with 10 to 50 nM oleandrin for 48 hr. Protein was collected from the 6 well plates for Western blot analysis and cell viability assessment was carried out by Calcien AM staining.

human tumor cell lines = assay: Mean IC50 of growth inhibition in groups of tumor cell lines by α3/α1 isoform ratio; format: cell-based; settings: ten cell lines α3/α1 >1.0 versus six cell lines α3/α1 <1.0
Experimental: FIG. 3A depicts a plot of concentration (nM) of oleandrin (provided as oleandrin) versus the percentage of growth of control. […] Exemplary cell lines for the groups are: Group I-MDA231, BXPC3, MCF-7; Group II-SUM149, BRO; Group III-Panc-1, CaCo2. The response data are as predicted by the isoform ratio data. In order to establish the robustness of the method and kit of the invention, a statistical analysis of cellular response data was conducted. The data in FIG. 3B depict the relative ability of oleandrin-containing composition to inhibit human tumor cell proliferation in vitro. The data are depicted as Mean±SD. Oleandrin mediated growth inhibition was examined in ten cell lines (representing a variety of solid tumors) in which the relative subunit content α3/α1 isoform ratio >1.0 and six cell lines in which the α3/α1 isoform ratio <1.0.
Student's t test was used to determine the statistical differences between various experimental groups; a value of P<0.05 was considered to be significant.

C[C@]12CC[C@H](O)C[C@H]1CC[C@@H]1[C@@H]2CC[C@]2(C)[C@@H](c3ccc(=O)oc3)CC[C@]12O [bufalin]
In vitro response (BXPC3 cells): No* (Denotes less than 50% growth inhibition achieved at concentrations up to 125 nM) | IC50 (MiaPaca cells): 2.1 nM | In vitro response (MiaPaca cells): Complete*** (Denotes greater than 75% growth inhibition achieved at 62 nM) | IC50 (PANC1 cells): 1.2 nM | In vitro response (PANC1 cells): Complete*** (Denotes greater than 75% growth inhibition achieved at 62 nM) | Inhibition of proliferation in vitro [1]: not significantly inhibited

CO[C@H]1C[C@H](O[C@H]2CC[C@@]3(C)[C@H](CC[C@@H]4[C@@H]3CC[C@]3(C)[C@@H](C5=CC(=O)OC5)[C@@H](OC(C)=O)C[C@]43O)C2)O[C@@H](C)[C@@H]1O [oleandrin]
IC50 (BRO cells; Homo sapiens): 8.2 nM | In vitro response (BRO cells): Complete*** (Denotes greater than 75% growth inhibition achieved at 62 nM) | In vitro response (BXPC3 cells): No* (Denotes less than 50% growth inhibition achieved at concentrations up to 125 nM) | In vitro response (CACO2 cells): Complete*** (Denotes greater than 75% growth inhibition achieved at 62 nM) | IC50 (CACO2 cells; Homo sapiens, Caco-2): 9.4 nM | In vitro response (DOD-1 cells): Complete*** (Denotes greater than 75% growth inhibition achieved at 62 nM) | IC50 (DOD-1 cells; Homo sapiens): 19.6 nM | In vitro response (HCT116 cells): Partial** (Denotes greater than 50% but less than 75% growth inhibition achieved at 62 nM) | IC50 (HCT116 cells; Homo sapiens, HCT-116): 36.2 nM | In vitro response (HT29 cells): Complete*** (Denotes greater than 75% growth inhibition achieved at 62 nM) | IC50 (HT29 cells; Homo sapiens, HT-29): 15.6 nM | In vitro response (LS174T cells): Complete*** (Denotes greater than 75% growth inhibition achieved at 62 nM) | IC50 (LS174T cells; Homo sapiens): 20.7 nM | In vitro response (MCF7 cells): No* (Denotes less than 50% growth inhibition achieved at concentrations up to 125 nM) | In vitro response (MDA231 cells): No* (Denotes less than 50% growth inhibition achieved at concentrations up to 125 nM) | IC50 (MiaPaca cells): 14.2 nM | In vitro response (MiaPaca cells): Complete*** (Denotes greater than 75% growth inhibition achieved at 62 nM) | IC50 (PANC1 cells): 6.1 nM | In vitro response (PANC1 cells): Complete*** (Denotes greater than 75% growth inhibition achieved at 62 nM) | IC50 (SUM149 cells; Homo sapiens): 22.5 nM | In vitro response (SUM149 cells): Partial** (Denotes greater than 50% but less than 75% growth inhibition achieved at 62 nM) | IC50 (Human melanoma BRO cells): 17 nM | IC50 [2]: 10 nM | IC50 [3]: 4.1 nM | IC50 [4]: > 50 nM | Sensitivity of transfected cells to treatment [5]: lose their sensitivity | Difference in mean IC50 between cell line groups (human tumor cell lines): 8 fold | Inhibition of proliferation in vitro [1]: not significantly inhibited

C[C@@H]1O[C@@H](O[C@H]2C[C@@H](O)[C@]3(CO)[C@H]4[C@H](O)C[C@]5(C)[C@@H](C6=CC(=O)OC6)CC[C@]5(O)[C@@H]4CC[C@]3(O)C2)[C@H](O)[C@H](O)[C@H]1O [ouabain]
Inhibition of proliferation in vitro [1]: not significantly inhibited
